Data reported in patent publication US20240360417A1, “CELL THERAPEUTIC AGENT FOR CANCER TREATMENT AND COMBINATION THERAPY WITH SAME” (Cell&Brain Co., Ltd, priority 2015, published 2024).
pIC50: −log10 of the molar value.

Experiments:
U87/GFP = experiment: In vitro combination therapy of F cells + 5-FC with irinotecan (isobologram); type: cell-based; settings: 144 h; U87/GFP co-cultured with F cells (MSC/CD), 6 days; read-out: IC50 values obtained by treatment alone
Procedure: 10,000 U87/GFP and 10,000 F cells (MSC/CD) were cultured in a 12-well plate. From the next day, the cells were treated with Irinotecan (Sigma) at a concentration of 0 to 30 μM and the prodrug 5-FC at a concentration of 0 to 300 μM, and cultured for 6 days while replacing with a new medium containing the drug once every two days. On the 7th day, the culture solution was removed, 200 μl of 1× passive lysis buffer was then added to each well, and each well was allowed to stand at 4° C. for 10 minutes. The cell lysate was collected and centrifuged at 12,000 rpm for 5 minutes to obtain supernatant. 100 μl of the supernatant was transferred to a black 96-well plate in which light is blocked, and the intensity of fluorescence was measured under conditions of excitation 488 nm and emission 530 nm using a fluorimeter (GEMINI EM).

[1] = system: U87MG glioma cells expressing LacZ; experiment: In vivo combination therapy with temozolomide, orthotopic brain tumor model; settings: survival measured up to 90 days
Procedure: On the 6th days after transplantation of U87MG glioma cells expressing LacZ, the F cells prepared in Preparation Example 2 were suspended in a Plasma Solution A, followed by centrifugation at 500×g for 5 minutes. The supernatant was discarded, and the washing procedure was repeated twice. Then, the cell suspension was prepared to have a concentration of 3×10^5/6 μl. The cell suspension was transplanted at a rate of 0.3 μl/min at the brain coordinates of AP=+0.5 mm, ML=−1.8 mm, and DV=−3 mm. From the next day after the cell transplantation, 5-FC (15 mg/ml physiological saline) was intraperitoneally injected at a dose of 500 mg/kg for one week. […] On 28th day, brain tissues were obtained from 8 animals in each animal group and X-gal staining was performed in the same manner as in Example 2 to measure the size of brain tumor.

Structure (SMILES) | pIC50 (U87/GFP) | median survival [1]
Nc1nc(=O)[nH]cc1F [5-FC, 5-fluorocytosine] | 4.13 | 
CCc1c2c(nc3ccc(OC(=O)N4CCC(N5CCCCC5)CC4)cc13)-c1cc3c(c(=O)n1C2)COC(=O)[C@]3(O)CC [irinotecan] | 5.49 | 
Cn1nnc2c(C(N)=O)ncn2c1=O [temozolomide] |  | 42 days
